{"source": "ChEMBL document CHEMBL4007392", "about": "“Modulating Mineralocorticoid Receptor with Non-steroidal Antagonists. New Opportunities for the Development of Potent and Selective Ligands without Off-Target Side Effects” (J Med Chem, 2017)", "key": {"[1]": {"target": "T1, Mineralocorticoid receptor (Homo sapiens, UniProt P08235)", "T1 sequence (P08235 whole entry)": "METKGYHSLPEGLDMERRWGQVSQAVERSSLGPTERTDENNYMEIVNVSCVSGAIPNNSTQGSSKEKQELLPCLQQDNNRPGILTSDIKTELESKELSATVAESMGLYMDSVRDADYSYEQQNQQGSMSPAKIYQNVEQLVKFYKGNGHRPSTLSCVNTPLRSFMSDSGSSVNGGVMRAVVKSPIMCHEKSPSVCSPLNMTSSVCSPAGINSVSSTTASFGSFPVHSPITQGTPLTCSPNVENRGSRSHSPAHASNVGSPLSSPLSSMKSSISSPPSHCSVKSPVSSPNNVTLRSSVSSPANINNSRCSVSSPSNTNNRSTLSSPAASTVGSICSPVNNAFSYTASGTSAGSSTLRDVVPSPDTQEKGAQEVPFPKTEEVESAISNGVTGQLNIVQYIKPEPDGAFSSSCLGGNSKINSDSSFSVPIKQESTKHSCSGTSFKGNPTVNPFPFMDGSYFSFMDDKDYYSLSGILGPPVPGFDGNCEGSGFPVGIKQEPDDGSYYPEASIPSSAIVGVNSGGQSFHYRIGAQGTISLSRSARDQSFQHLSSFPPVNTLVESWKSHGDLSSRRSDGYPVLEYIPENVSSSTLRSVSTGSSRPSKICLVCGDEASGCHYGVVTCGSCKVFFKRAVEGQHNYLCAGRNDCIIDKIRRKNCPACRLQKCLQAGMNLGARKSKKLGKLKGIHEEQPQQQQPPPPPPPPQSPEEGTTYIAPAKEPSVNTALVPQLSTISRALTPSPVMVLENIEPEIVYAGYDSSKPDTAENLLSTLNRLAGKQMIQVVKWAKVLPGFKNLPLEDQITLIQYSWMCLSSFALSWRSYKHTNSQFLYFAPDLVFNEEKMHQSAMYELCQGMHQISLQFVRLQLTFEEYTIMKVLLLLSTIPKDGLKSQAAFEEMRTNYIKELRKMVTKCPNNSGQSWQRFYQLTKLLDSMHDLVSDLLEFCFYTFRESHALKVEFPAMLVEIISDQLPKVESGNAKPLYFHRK", "assay": "Displacement of [3H]-cortisol from MR overexpressed in human 293 cells measured after 2 hrs by Microbeta scintillation counting method", "assay_type": "cell-based"}, "Rattus norvegicus [2]": {"system": "Rattus norvegicus", "assay": "In vivo antagonist activity at MR in rat assessed as inhibition aldosterone-induced decrease in urinary sodium/potassium ratio at 3 mg/kg, po after 20 hrs", "assay_type": "functional"}, "[3]": {"target": "T1, Mineralocorticoid receptor", "assay": "Antagonist activity at human MR overexpressed in HEK293 cells assessed as inhibition of aldosterone-induced response measured after overnight incubation by luciferase reporter gene assay", "assay_type": "cell-based"}, "[4]": {"target": "T1, Mineralocorticoid receptor", "assay": "Displacement of [3H]-Aldosterone from MR overexpressed in human 293 cells measured after 2 hrs by Microbeta scintillation counting method", "assay_type": "cell-based"}, "[5]": {"target": "T1, Mineralocorticoid receptor", "assay": "Antagonist activity at Gal4-fused human MR LBD (672 to 984 residues) expressed in HEK293T cells assessed as inhibition of aldosterone-induced transactivation activity after 24 hrs by luciferase reporter gene assay", "assay_type": "cell-based, HEK-293T"}, "Homo sapiens": {"species": "Homo sapiens", "assay": "Ratio of IC50 for Gal4-fused human AR expressed in CHO-K1 cells to IC50 for Gal4-fused human MR expressed in CHO-K1 cells", "assay_type": "cell-based"}, "[6]": {"target": "T1, Mineralocorticoid receptor", "assay": "Antagonist activity at Gal4-fused human MR LBD (734 to 985 residues) expressed in CHO-K1 cells after 5 to 6 hrs by luciferase reporter gene assay", "assay_type": "cell-based"}, "Rattus norvegicus [7]": {"system": "Rattus norvegicus", "assay": "In vivo antagonist activity at MR in rat assessed as inhibition aldosterone-induced decrease in urinary sodium/potassium ratio at 30 mg/kg, po after 20 hrs", "assay_type": "functional"}, "Rattus norvegicus [8]": {"system": "Rattus norvegicus", "assay": "In vivo antagonist activity at MR in rat assessed as inhibition aldosterone-induced decrease in urinary sodium/potassium ratio at 30 mg/kg, po after 8 hrs", "assay_type": "functional"}}}
{"smiles": "O=c1[nH]c2cc(/C=C3\\c4ccccc4COc4cc(F)ccc43)ccc2n1[C@@H]1C[C@@H]2COCCN2C1", "values": [{"measurement": "Ki", "setting": "[1]", "value": 9, "unit": "nM"}]}
{"smiles": "Cc1c(C(=O)Nc2ccc(S(C)(=O)=O)cc2)cn(CCO)c1-c1ccccc1C(F)(F)F", "note": "(single isomer, unassigned; atropisomer 2)", "values": [{"measurement": "inhibition in vivo at 3 mg/kg", "setting": "Rattus norvegicus [2]", "value": 56, "unit": "%"}]}
{"smiles": "C[C@H](CN1CCOCC1)n1/c(=N\\C#N)[nH]c2cc(/C=C3\\c4ccccc4COc4cc(F)ccc43)ccc21", "values": [{"measurement": "IC50", "setting": "[3]", "value": 21, "unit": "nM"}, {"measurement": "Ki", "setting": "[4]", "value": 0.4, "unit": "nM"}]}
{"smiles": "CC(=O)Oc1ccc(CCc2ccc3c(c2)NC(=O)CO3)c(C)c1", "values": [{"measurement": "IC50", "setting": "[5]", "value": "< 2", "unit": "nM"}]}
{"smiles": "CCOC(=O)C1=C(C)NC(C)=C(C(C)=O)[C@H]1c1cccc2c(=O)cc(C)oc12", "values": [{"measurement": "Ratio IC50", "setting": "Homo sapiens", "value": 160}, {"measurement": "IC50", "setting": "[6]", "value": "28 to 43", "unit": "nM"}]}
{"smiles": "CC(=O)S[C@@H]1CC2=CC(=O)CC[C@]2(C)[C@H]2CC[C@@]3(C)[C@@H](CC[C@@]34CCC(=O)O4)[C@H]12", "note": "[SPIRONOLACTONE]", "values": [{"measurement": "inhibition in vivo at 30 mg/kg", "setting": "Rattus norvegicus [7]", "value": "< 20", "unit": "%"}]}
{"smiles": "COC(=O)[C@@H]1CC2=CC(=O)CC[C@]2(C)[C@@]23O[C@@H]2C[C@@]2(C)[C@@H](CC[C@@]24CCC(=O)O4)[C@H]13", "note": "[EPLERENONE]", "values": [{"measurement": "inhibition in vivo at 30 mg/kg", "setting": "Rattus norvegicus [8]", "value": 8, "unit": "%"}]}
